# Reference: PubChem BioAssay AID330 (DTP/NCI, 2004)
# “And” between values parts separate entries of the source, which are not always exact repeats. Equal values may be shown once. Inconclusive results and toxic doses are left out.
# Tested on: P388 leukemia ip, CD2F1 mice, survival T/C
# Assay: NCI In Vivo Anticancer Drug Screen. Data for tumor model P388 Leukemia (intraperitoneal) in CD2F1 (CDF1) mice
# Conditions: endpoint: median survival time, higher = longer survival
# Method in brief: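 Mice carrying the transplanted tumor received test compound or vehicle. Survival was recorded in each group, and the value is the treated-group measurement divided by that of the vehicle-treated control group.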
# [1] = dose: 6.25 mg/kg/injection, schedule: Q01DX009 (ip), vehicle: saline with Tween-80
# [2] = dose: 12.5 mg/kg/injection, schedule: Q01DX009 (ip), vehicle: saline with Tween-80
# [3] = dose: 25.0 mg/kg/injection, schedule: Q01DX009 (ip), vehicle: saline with Tween-80
# [4] = dose: 25.0 mg/kg/injection, schedule: Q04DX003 (ip), vehicle: saline with Tween-80
# [5] = dose: 50.0 mg/kg/injection, schedule: Q01DX009 (ip), vehicle: Klucel (hydroxypropylcellulose) (HPC)
# [6] = dose: 100.0 mg/kg/injection, schedule: Q01DX009 (ip), vehicle: Klucel (hydroxypropylcellulose) (HPC)
# [7] = dose: 60.0 mg/kg/injection, schedule: Q01DX005 (ip), vehicle: saline with Tween-80
# [8] = dose: 50.0 mg/kg/injection, schedule: Q01DX005 (ip), vehicle: saline with Tween-80
smiles,measurement,setting,value
NC1(C(=O)O)CCCc2ccc(N(CCCl)CCCl)cc21 (stereo not drawn),T/C,"dose: 5.0 mg/kg/injection, schedule: Q04DX003 (ip), vehicle: saline",165 % of control
same,T/C,[1],218 % of control and 197 % of control and 201 % of control
same,T/C,"dose: 10.0 mg/kg/injection, schedule: Q04DX003 (ip), vehicle: saline",180 % of control
same,T/C,[2],272 % of control and 210 % of control and 215 % of control
same,T/C,"dose: 12.5 mg/kg/injection, schedule: Q04DX003 (ip), vehicle: saline with Tween-80",222 % of control
same,T/C,[3],90 % of control and 102 % of control and 121 % of control
same,T/C,[4],272 % of control
same,T/C,"dose: 313.0 micrograms/kg/injection, schedule: Q04DX003 (ip), vehicle: saline with Tween-80",100 % of control
same,T/C,"dose: 625.0 micrograms/kg/injection, schedule: Q04DX003 (ip), vehicle: saline with Tween-80",109 % of control
same,T/C,"dose: 1250.0 micrograms/kg/injection, schedule: Q04DX003 (ip), vehicle: saline with Tween-80",113 % of control
CCCCCOc1cc2c(cc1C(C)c1ccc(OC)cc1)OCO2 (stereo not drawn),T/C,"dose: 50.0 mg/kg/injection, schedule: Q01DX005 (ip), vehicle: Klucel (hydroxypropylcellulose) (HPC)",107 % of control
same,T/C,"dose: 100.0 mg/kg/injection, schedule: Q01DX005 (ip), vehicle: Klucel (hydroxypropylcellulose) (HPC)",103 % of control
same,T/C,"dose: 200.0 mg/kg/injection, schedule: Q01DX005 (ip), vehicle: Klucel (hydroxypropylcellulose) (HPC)",98 % of control
CN(C)c1nc(NC(=O)NC(=O)c2c(F)cccc2F)nc(N(C)C)n1,T/C,[1],101 % of control
same,T/C,[2],111 % of control
same,T/C,[3],104 % of control
CC(Cl)CN(CC(C)Cl)c1ccc(-c2ccccc2)cc1 (stereo not drawn),T/C,[5],105 % of control and 109 % of control
same,T/C,[6],124 % of control
C[Si](C)(C)CNC(=S)S,T/C,[7],113 % of control
same,T/C,"dose: 120.0 mg/kg/injection, schedule: Q01DX005 (ip), vehicle: saline with Tween-80",115 % of control
same,T/C,"dose: 240.0 mg/kg/injection, schedule: Q01DX005 (ip), vehicle: saline with Tween-80",112 % of control
NC(CCC(=O)NC(CS)C(=O)NCC(=O)O)C(=O)O.[CH2-]CCC.[CH2-]CCC.[CH2-]CCC.[CH2-]CCC.[Ti+4] (stereo not drawn),T/C,[8],103 % of control
same,T/C,"dose: 100.0 mg/kg/injection, schedule: Q01DX005 (ip), vehicle: saline with Tween-80",89 % of control
C/C(=N\NC(=O)c1ccncc1)c1cccc(/C(C)=N/NC(=O)c2ccncc2)n1.O=S(=O)([O-])[O-].[Fe+2],T/C,"dose: 12.5 mg/kg/injection, schedule: Q01DX005 (ip), vehicle: saline with Tween-80",97 % of control
same,T/C,"dose: 25.0 mg/kg/injection, schedule: Q01DX005 (ip), vehicle: saline with Tween-80",100 % of control
same,T/C,[8],87 % of control and 95 % of control
CCN1C(Cl)=NS(=O)(=O)c2ccccc21,T/C,"dose: 15.0 mg/kg/injection, schedule: Q01DX005 (ip), vehicle: saline with Tween-80",116 % of control
same,T/C,"dose: 30.0 mg/kg/injection, schedule: Q01DX005 (ip), vehicle: saline with Tween-80",113 % of control
same,T/C,[7],100 % of control
CN(C)C(=O)ONC(=O)c1ccccc1,T/C,[5],105 % of control
same,T/C,[6],109 % of control
same,T/C,"dose: 200.0 mg/kg/injection, schedule: Q01DX009 (ip), vehicle: Klucel (hydroxypropylcellulose) (HPC)",108 % of control
NNC(=O)C(O)C(O)C(=O)NN (stereo not drawn),T/C,"dose: 30.0 mg/kg/injection, schedule: Q01DX005 (ip), vehicle: saline",97 % of control
same,T/C,"dose: 30.0 mg/kg/injection, schedule: Q01DX009 (ip), vehicle: saline",103 % of control
same,T/C,"dose: 60.0 mg/kg/injection, schedule: Q01DX005 (ip), vehicle: saline",100 % of control
same,T/C,"dose: 60.0 mg/kg/injection, schedule: Q01DX009 (ip), vehicle: saline",97 % of control
same,T/C,"dose: 120.0 mg/kg/injection, schedule: Q01DX005 (ip), vehicle: saline",94 % of control
same,T/C,"dose: 120.0 mg/kg/injection, schedule: Q01DX009 (ip), vehicle: saline",105 % of control
CN(C)c1ccc(N=Nc2ccc3cc4ccccc4cc3c2)cc1,T/C,[4],101 % of control
same,T/C,"dose: 50.0 mg/kg/injection, schedule: Q04DX003 (ip), vehicle: saline with Tween-80",105 % of control
O=C1c2cccc3cccc(c23)C2C1N2C1CCCCC1 (stereo not drawn),T/C,"dose: 25.0 mg/kg/injection, schedule: Q01DX001 (ip), vehicle: saline sonified",95 % of control
same,T/C,"dose: 50.0 mg/kg/injection, schedule: Q01DX001 (ip), vehicle: saline sonified",104 % of control
same,T/C,"dose: 100.0 mg/kg/injection, schedule: Q01DX001 (ip), vehicle: saline sonified",86 % of control
